Measurements as given in the supplement of paper PMC11061612.

Experiments:
[1] = system: JHU-022 (Oral Cavity Carcinoma); test: combination Emax (second highest fraction inhibited in the dose matrix, 72 h); higher = more inhibition; extreme values may be limits of the assay
Procedure, shortened: (§1)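 Cell lines in DMEM/F12 or RPMI with 10% FBS were plated in 1536-well plates, held 24 hours at 37°C, 5% CO2, then given two-drug dose matrices for 72 hours (DMSO typically 0.2%). Viability was read by CellTiter-Glo 2.0 luminescence and scaled as inhibition from 0 (vehicle wells) to 1 (blank wells). Combination Emax is the second-highest inhibition in the matrix; Bliss excess is observed combination effect minus expected EA + EB − EA·EB, EA and EB being single-agent effects.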

[2] = system: DMS-53 (Small Cell Lung Carcinoma); test: as above
Procedure, shortened: as §1

[3] = system: WM1552C (Melanoma); test: as above
Procedure, shortened: as §1

[4] = system: A253 (Head and Neck Carcinoma); test: as above
Procedure, shortened: as §1

[5] = system: IM-9 (Non-Cancerous); test: as above
Procedure, shortened: as §1

[6] = system: G-402 (Other Solid Carcinomas); test: Bliss excess, mean over the matrix (fraction); higher = more synergy
Procedure, shortened: as §1

[7] = system: PEO1 (Ovarian Carcinoma); test: as above
Procedure, shortened: as §1

[8] = system: 769-P (Kidney Carcinoma); test: as above
Procedure, shortened: as §1

[9] = system: JHH-2 (Hepatocellular Carcinoma); test: as above
Procedure, shortened: as §1

[10] = system: EW-7 (Ewing's Sarcoma); test: as above
Procedure, shortened: as §1

[11] = system: ESO26 (Esophageal Adenocarcinoma); test: as above
Procedure, shortened: as §1

[12] = system: A253 (Head and Neck Carcinoma); test: as above
Procedure, shortened: as §1

[13] = system: NCI-H441 (Lung Adenocarcinoma); test: as above
Procedure, shortened: as §1

[14] = system: CESS (Acute Myeloid Leukemia); test: as above
Procedure, shortened: as §1

[15] = system: NCI-H1651 (Lung Adenocarcinoma); test: as above
Procedure, shortened: as §1

[16] = system: MHH-ES-1 (Ewing's Sarcoma); test: as above
Procedure, shortened: as §1

[17] = system: UACC-812 (Breast Carcinoma); test: as above
Procedure, shortened: as §1

[18] = system: CAL-27 (Oral Cavity Carcinoma); test: as above
Procedure, shortened: as §1

[19] = system: KYSE-220 (Esophageal Squamous Cell Carcinoma); test: as above
Procedure, shortened: as §1

[20] = system: KP-N-YN (Neuroblastoma); test: as above
Procedure, shortened: as §1
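For Bliss excess, mean over the matrix in this document: after 72 h of two-drug dosing.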

With `COc1cccc(OCCCN)c1-c1cc(Nc2cnc(C#N)cn2)n[nH]1` [Prexasertib] + CCc1c2c(nc3ccc(O)cc13)-c1cc3c(c(=O)n1C2)COC(=O)[C@]3(O)CC [SN-38] (first compound max 1 µM, 7x7, partner max 0.3 µM) the “combination Emax” value [1] was 0.756, the “combination Emax” value [2] was 0.878 and the “combination Emax” value [3] was 0.833. The “combination Emax” value [4] was 0.966, the “combination Emax” value [5] was 1 and the Bliss excess [6] was -0.0336. The Bliss excess [7] was -0.0015, the Bliss excess [8] was -0.0688 and the Bliss excess [9] was 0.0002. It also gave a Bliss excess [10] of -0.0713, a Bliss excess [11] of 0.0483 and a Bliss excess [12] of 0.0296. For the same compound, the Bliss excess [13] was -0.0772, the Bliss excess [14] was -0.0364 and the Bliss excess [15] was -0.0551. The Bliss excess [16] was 0.0134, the Bliss excess [17] was -0.0633 and the Bliss excess [18] was 0.0083. The Bliss excess [19] was -0.0153 and the Bliss excess [20] was -0.0158.
In the case of `COc1cccc(OCCCN)c1-c1cc(Nc2cnc(C#N)cn2)n[nH]1` [Prexasertib] + CN(C)CCCOc1ccc(-c2ccc3ncc4c(c3c2)n(C2CCOCC2)c(=O)n4C)cn1 [AZD0156] (first compound max 1 µM, 7x7, partner max 1 µM), the “combination Emax” value [1] is reported as 0.659, the “combination Emax” value [2] is reported as 0.275 and the “combination Emax” value [3] is reported as 0.844. For the same compound, the “combination Emax” value [4] was 0.774, the “combination Emax” value [5] was 1 and the Bliss excess [6] was 0.0003. The Bliss excess [7] was -0.0168, the Bliss excess [8] was 0.0193 and the Bliss excess [9] was -0.0371. The Bliss excess [10] was 0.025, the Bliss excess [11] was 0.0207 and the Bliss excess [12] was -0.0379. The Bliss excess [13] was -0.0994, the Bliss excess [14] was 0.0062 and the Bliss excess [15] was -0.107. For the same compound, the Bliss excess [16] was 0.0004, the Bliss excess [17] was -0.0324 and the Bliss excess [18] was -0.0014. The Bliss excess [19] was -0.026 and the Bliss excess [20] was 0.0202.
`COc1cccc(OCCCN)c1-c1cc(Nc2cnc(C#N)cn2)n[nH]1` [Prexasertib] + C[C@@H]1COCCN1C2=NC(=NC(=C2)C3(CC3)[S@](=N)(=O)C)C4=C5C=CNC5=NC=C4 [AZD6738] (first compound max 1 µM, 7x7, partner max 10 µM) was tested, and the “combination Emax” value [1] was 0.627, the “combination Emax” value [2] was 0.272 and the “combination Emax” value [3] was 0.743. For the same compound, the “combination Emax” value [4] was 0.846, the “combination Emax” value [5] was 1 and the Bliss excess [6] was -0.0253. It also gave a Bliss excess [7] of -0.0083, a Bliss excess [8] of 0.0022 and a Bliss excess [9] of -0.0136. It also gave a Bliss excess [10] of -0.0437, a Bliss excess [11] of -0.0681 and a Bliss excess [12] of -0.0334. It also gave a Bliss excess [13] of 0.0009, a Bliss excess [14] of -0.0065 and a Bliss excess [15] of -0.0439. The Bliss excess [16] was -0.0161, the Bliss excess [17] was 0.049 and the Bliss excess [18] was 0.0227. It also gave a Bliss excess [19] of -0.0294 and a Bliss excess [20] of -0.0048.
With `COc1cccc(OCCCN)c1-c1cc(Nc2cnc(C#N)cn2)n[nH]1` [Prexasertib] + Cc1cc2ncnn2cc1Nc1ncc2c(n1)n(C1CCOCC1)c(=O)n2C [AZD7648] (first compound max 1 µM, 7x7, partner max 10 µM) the “combination Emax” value [1] was 0.634, the “combination Emax” value [2] was 0.293 and the “combination Emax” value [3] was 0.763. The “combination Emax” value [4] was 0.782, the “combination Emax” value [5] was 1 and the Bliss excess [6] was -0.0602. The Bliss excess [7] was -0.0117, the Bliss excess [8] was -0.038 and the Bliss excess [9] was -0.0348. For the same compound, the Bliss excess [10] was -0.0118, the Bliss excess [11] was 0.0142 and the Bliss excess [12] was -0.0228. For the same compound, the Bliss excess [13] was 0.0071, the Bliss excess [14] was 0.0409 and the Bliss excess [15] was -0.132. It also gave a Bliss excess [16] of -0.004, a Bliss excess [17] of -0.0402 and a Bliss excess [18] of 0.0291. For the same compound, the Bliss excess [19] was -0.0308 and the Bliss excess [20] was -0.0221.
In the case of `COc1cccc(OCCCN)c1-c1cc(Nc2cnc(C#N)cn2)n[nH]1` [Prexasertib] + O=C(c1cc(Cc2n[nH]c(=O)c3ccccc23)ccc1F)N1CCN(C(=O)C2CC2)CC1 [Olaparib] (first compound max 1 µM, 7x7, partner max 10 µM), the “combination Emax” value [1] is reported as 0.637, the “combination Emax” value [2] is reported as 0.314 and the “combination Emax” value [3] is reported as 0.711. For the same compound, the “combination Emax” value [4] was 0.794, the “combination Emax” value [5] was 1 and the Bliss excess [6] was -0.0572. For the same compound, the Bliss excess [7] was -0.0183, the Bliss excess [8] was -0.118 and the Bliss excess [9] was -0.0428. It also gave a Bliss excess [10] of -0.0465, a Bliss excess [11] of -0.0191 and a Bliss excess [12] of -0.0617. It also gave a Bliss excess [13] of -0.101, a Bliss excess [14] of -0.0511 and a Bliss excess [15] of -0.0471. For the same compound, the Bliss excess [16] was 0.0048, the Bliss excess [17] was -0.0395 and the Bliss excess [18] was -0.0113. It also gave a Bliss excess [19] of -0.0238 and a Bliss excess [20] of -0.245.
In the case of `CCc1c2c(nc3ccc(O)cc13)-c1cc3c(c(=O)n1C2)COC(=O)[C@]3(O)CC` [SN-38] + CN(C)CCCOc1ccc(-c2ccc3ncc4c(c3c2)n(C2CCOCC2)c(=O)n4C)cn1 [AZD0156] (first compound max 0.3 µM, 7x7, partner max 1 µM), the “combination Emax” value [1] is reported as 0.842, the “combination Emax” value [2] is reported as 0.729 and the “combination Emax” value [3] is reported as 0.59. For the same compound, the “combination Emax” value [4] was 0.881, the “combination Emax” value [5] was 1 and the Bliss excess [6] was 0.003. It also gave a Bliss excess [7] of -0.0037, a Bliss excess [8] of 0.018 and a Bliss excess [9] of 0.0204. For the same compound, the Bliss excess [10] was 0.0647, the Bliss excess [11] was -0.0042 and the Bliss excess [12] was -0.0019. It also gave a Bliss excess [13] of -0.0052, a Bliss excess [14] of 0.0031 and a Bliss excess [15] of -0.021. The Bliss excess [16] was 0.0449, the Bliss excess [17] was 0.034 and the Bliss excess [18] was 0.0255. It also gave a Bliss excess [19] of 0.0574 and a Bliss excess [20] of 0.0238.
In the case of `Cn1cnc2c(F)c(Nc3ccc(Br)cc3Cl)c(C(=O)NOCCO)cc21` [Selumetinib] + C=CCn1c(=O)c2cnc(Nc3ccc(N4CCN(C)CC4)cc3)nc2n1-c1cccc(C(C)(C)O)n1 [AZD1775] (first compound max 10 µM, partner max 1 µM), the “combination Emax” value [1] is reported as 0.529, the “combination Emax” value [2] is reported as 0.247 and the “combination Emax” value [3] is reported as 0.458. The “combination Emax” value [4] was 0.336, the “combination Emax” value [5] was 1 and the Bliss excess [6] was -0.073. For the same compound, the Bliss excess [7] was -0.0059, the Bliss excess [8] was -0.0944 and the Bliss excess [9] was -0.0571. The Bliss excess [10] was -0.0115, the Bliss excess [11] was -0.0853 and the Bliss excess [12] was -0.0181. It also gave a Bliss excess [13] of 0.0069, a Bliss excess [14] of -0.0037 and a Bliss excess [15] of -0.0692. The Bliss excess [16] was -0.0733, the Bliss excess [17] was -0.0425 and the Bliss excess [18] was 0.0384. It also gave a Bliss excess [19] of -0.0391 and a Bliss excess [20] of -0.0751.
